The subject of assay [1] is HCT116. The assay is described as follows: AC50 cell viability (CellTiter-Glo); higher = less potent. The conditions noted are these: 48 h.
For assay [2], the system named is HCT116. Put plainly: efficacy (fitted maximal change in viability relative to DMSO control); higher = less cytotoxic (negative = loss of viability). The conditions noted are these: 48 h.

Among the data in the supplement of paper PMC10290057 are AC50 cell viability and efficacy values, retold here.

Molecules are shown by their SMILES. Where a name gives a salt, the structure may show the parent alone.
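Wherever AC50 cell viability (CellTiter-Glo) is given: HCT116 colorectal carcinoma cells screened at five concentrations per compound, luminescent viability scaled between DMSO wells and empty wells on each plate, curves fitted per compound.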
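Wherever efficacy (fitted maximal change in viability relative to DMSO control) is given: Luminescence-based viability readout, five doses per compound, normalized against on-plate DMSO and empty-well controls, followed by dose-response curve fitting for every drug.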

In turn, `C[C@@]12C(=O)OC(=O)[C@]1(C)[C@H]1CC[C@@H]2O1` [Cantharidin] came in with an AC50 cell viability in the assay with HCT116 [1] of 9.34 µM. The efficacy in the assay on HCT116 [2] is -86.9%.

`CC(C)C[C@H](NC(=O)[C@H](CCc1ccccc1)NC(=O)CN1CCOCC1)C(=O)N[C@@H](Cc1ccccc1)C(=O)N[C@@H](CC(C)C)C(=O)[C@@]1(C)CO1` [Carfilzomib] came in with an AC50 cell viability with HCT116 [1] of 0.0118 µM. Moreover, the efficacy in the assay on HCT116 [2] was -93.6%.

`CCCCCCNC(=O)N1\C=C(F)/C(=O)NC1=O` [Carmofur] registered an AC50 cell viability in the assay on HCT116 [1] of 4.17 µM. For the same molecule, in the assay with HCT116 [2], the efficacy was -61.6%.

Regarding `CCNc1cc(NC2CCC(O)CC2)nc(Nc2ccc3c(ccn3Cc3ccccc3)c2)n1` (stereo not given) [Cdk4/6 Inhibitor IV], in the assay on HCT116 [1], the AC50 cell viability stood at 20.9 µM. Moreover, the efficacy in the assay on HCT116 [2] is -51.1%.

Take `COc1cc2c(Oc3ccc4[nH]c(C)cc4c3F)ncnc2cc1OCCCN1CCCC1` [Cediranib]: the AC50 cell viability in the assay on HCT116 [1] came out at 14.8 µM. In addition, in the assay on HCT116 [2], the efficacy was -111%.

The molecule `Cc1ccc(-c2cc(C(F)(F)F)nn2-c2ccc([S+](N)(=O)[O-])cc2)cc1` [Celecoxib] came in with an AC50 cell viability in the assay with HCT116 [1] of 18.6 µM. In addition, the efficacy in the assay on HCT116 [2] was -77.8%.

On to `C/C=C(\C)C(=O)N[C@@H](c1ccccc1)[C@@H](O)C(=O)O[C@H]1C[C@@]2(O)[C@@H](OC(=O)c3ccccc3)[C@@H]3[C@]4(OC(C)=O)CO[C@@H]4C[C@H](O)[C@@]3(C)C(=O)[C@H](OC(C)=O)C(=C1C)C2(C)C` [Cephalomannine], for which, in the assay on HCT116 [1], the AC50 cell viability was found to be 0.0263 µM. In addition, in the assay with HCT116 [2], the efficacy was -63.5%.

In the assay on HCT116 [1], `Cc1cc(Nc2ncc(Cl)c(Nc3ccccc3[S+](=O)([O-])C(C)C)n2)c(OC(C)C)cc1C1CCNCC1` [Ceritinib] displayed an AC50 cell viability of 13.2 µM. In addition, the efficacy in the assay on HCT116 [2] is -115%.

For `C/C=C/C/C=C/CCC(=O)[C@H]1O[C@H]1C(N)=O` [Cerulenin], in the assay on HCT116 [1], the AC50 cell viability worked out at 16.6 µM. Moreover, the efficacy in the assay on HCT116 [2] was -80.2%.

In turn, `CNCCCOc1cc(F)c(-c2c(Cl)nc3ncnn3c2N[C@@H](C)C(F)(F)F)c(F)c1` [Cevipabulin] had an AC50 cell viability with HCT116 [1] of 0.0525 µM. Besides, the efficacy in the assay on HCT116 [2] is -60.6%.

As for `Nc1ccc(F)cc1NC(=O)c1ccc(CNC(=O)/C=C/c2cccnc2)cc1` [Chidamide], the AC50 cell viability in the assay with HCT116 [1] amounted to 5.9 µM. The efficacy with HCT116 [2] was -90.4%.

The molecule `N=C(NCCCCCCNC(=N)NC(=N)Nc1ccc(Cl)cc1)NC(=N)Nc1ccc(Cl)cc1` [Chlorhexidine] showed an AC50 cell viability with HCT116 [1] of 20.9 µM. Also, in the assay with HCT116 [2], the efficacy is -93.5%.

The molecule `Oc1c(Cl)cc(Cl)c2cccnc12` [Chloroxine] had an AC50 cell viability in the assay with HCT116 [1] of 13.2 µM. Moreover, the efficacy in the assay on HCT116 [2] was -86.7%.

Consider `OC1=CC2=C(C(=C1)O)C(=O)\C=C(/O2)C3=CC=CC=C3` [Chrysine], for which the AC50 cell viability with HCT116 [1] is 20.9 µM. In addition, the efficacy in the assay with HCT116 [2] was -49.1%.

Take `CC(C)C(=O)OCC(=O)[C@@]12O[C@@H](O[C@@H]1C[C@H]3[C@@H]4CC\C5=C\C(=O)\C=C/[C@]5(C)[C@H]4[C@@H](O)C[C@]23C)C6CCCCC6` [Ciclesonide]: the AC50 cell viability with HCT116 [1] was 20.9 µM. Further, the efficacy in the assay with HCT116 [2] was -78.4%.

In the assay with HCT116 [1], `CC/1=C/C(=O)N(O)/C(=C1)C2CCCCC2` [Ciclopirox] came in with an AC50 cell viability of 3.72 µM. The efficacy in the assay on HCT116 [2] is -89.1%.

In the assay with HCT116 [1], `C[C@@H](NCCCc1cccc(C(F)(F)F)c1)c1cccc2ccccc12` [Cinacalcet hydrochloride] gave an AC50 cell viability of 16.6 µM. For the same molecule, the efficacy in the assay with HCT116 [2] was -92.6%.

`Nc1nc(Cl)nc2c1ncn2[C@H]1C[C@H](O)[C@@H](CO)O1` [Cladribine] displayed an AC50 cell viability with HCT116 [1] of 0.295 µM. The efficacy in the assay with HCT116 [2] is -55.8%.

Take `Clc1ccc(Cn2c(CN3CCCC3)nc3ccccc32)cc1` [Clemizole hydrochloride]: in the assay with HCT116 [1], the AC50 cell viability came out at 23.5 µM. In addition, in the assay with HCT116 [2], the efficacy is -93.1%.

For the molecule `CCN(CC)CCOc1ccc(/C(=C(\Cl)c2ccccc2)c2ccccc2)cc1` [Clomifene citrate], the AC50 cell viability in the assay on HCT116 [1] was determined as 8.33 µM. Moreover, in the assay with HCT116 [2], the efficacy is -90.7%.

Take `Clc1ccccc1C(c1ccccc1)(c1ccccc1)n1ccnc1` [Clotrimazole]: in the assay on HCT116 [1], the AC50 cell viability is 20.9 µM. Also, in the assay with HCT116 [2], the efficacy was -81.6%.

As to `CN1CCN(CC1)\C2=N\C3=C(NC4=C2C=CC=C4)C=CC(=C3)Cl` [Clozapine], the AC50 cell viability with HCT116 [1] was determined as 20.9 µM. Besides, the efficacy with HCT116 [2] is -99.6%.

The molecule `O=C(c1ccc(F)c(F)c1Nc1ccc(I)cc1F)N1CC(O)([C@@H]2CCCCN2)C1` [Cobimetinib] came in with an AC50 cell viability with HCT116 [1] of 1.86 µM. Besides, in the assay with HCT116 [2], the efficacy is -105%.

For the molecule `COC/1=C/C=C2\C(=C/C1=O)[C@H](CCC3=CC(=C(OC)C(=C23)OC)OC)NC(C)=O` [Colchicine], the AC50 cell viability in the assay on HCT116 [1] came out at 0.0661 µM. Also, in the assay with HCT116 [2], the efficacy is -59.9%.

As for `CN1CCc2c(n(Cc3ccc(C(=O)NO)cc3)c3ccccc23)C1` [Compound 7], in the assay with HCT116 [1], the AC50 cell viability came out at 26.3 µM. Also, the efficacy with HCT116 [2] was -98.9%.
